According to patent publication US9717725B2, “Use of opioid antagonists” (THE UNIVERSITY OF CHICAGO, priority 2005, dated 2017):
Entries after “also recorded” stand apart in the source; their conditions may differ.

What was measured:
[1] = system: microvascular endothelial cells; test: VEGF induced migration of endothelial cells, combination (Example 10); type: cell-based; settings: combination of methylnaltrexone and Bevacizumab
VEGF receptor 1 (Flt-1) = test: Tyrosine phosphorylation of VEGF receptor 1 (immunoprecipitation/immunoblot); type: cell-based, human; settings: HPMVEC
VEGF receptor 2 (Flk-1) = test: Tyrosine phosphorylation of VEGF receptor 2 (immunoprecipitation/immunoblot); type: cell-based, human; settings: HPMVEC
PDGF receptor = test: Tyrosine phosphorylation of the PDGF receptor in EC (Example 9); type: cell-based, human; settings: for induction of tyrosine phosphorylation of the PDGF receptor: EC
[2] = system: human pulmonary microvascular endothelial cells (HPMVEC); test: Human pulmonary microvascular EC proliferation assay (CellTiter96 MTS); type: cell-based; settings: for agonist-induced EC proliferation: serum-free media with agonist, MTS assay
RhoA = RhoA activation assay (RBD bead pull-down, immunoblot); type: cell-based, human; settings: EC
S1P3 receptor = test: Tyrosine phosphorylation of the S1P3 receptor in EC (Example 9); type: cell-based, human; settings: for induction of tyrosine phosphorylation of the S1P3 receptor: EC
Flk-1 expression = settings: morphine-treated mice versus controls (K. Gupta, personal communication); cited from earlier work
[3] = system: proliferative retinopathy; settings: sickle cell disease (Gupta et al., personal communication); cited from earlier work
VEGF receptor = test: Tyrosine phosphorylation of the VEGF receptor in EC (Example 9); type: cell-based, human; settings: for induction of tyrosine phosphorylation of the VEGF receptor: EC
[4] = system: human pulmonary microvascular endothelial cells (HPMVEC); test: Human pulmonary microvascular EC migration assay (Transwell); type: cell-based; settings: for agonist-induced EC migration (% migration): agonist in lower chamber, Transwell
[5] = J. Foss, et al.; cited from earlier work
tumor = test: Study in human cancer patients (Examples 6-7); type: in vivo; settings: antagonist orally 5 mg/kg/day for eight weeks with opioid and bevacizumab (Avastin)
tumors = test: Treatment of tumor-bearing mice (Examples 4-7); type: in vivo; settings: eight weeks; for tumor growth and angiogenesis: antagonist orally 5 mg/kg/day with morphine 0.5 mg/kg/day; for angiogenesis and tumor growth, combination of opioid, opioid antagonist and anticancer agent: with morphine and bevacizumab (Avastin) 5 mg/kg every 14 days
[6] = system: SW 480 human colorectal cancer cell line; test: Effects on SW 480 cancer cell line
[7] = system: microvascular endothelial cells; test: VEGF induced proliferation of endothelial cells, combination (Example 10); type: cell-based; settings: combination of methylnaltrexone and 5-FU
[8] = system: Lewis lung carcinoma (LLC) cells; test: LLC cell invasion assay (Chemicon Cell Invasion Assay Kit); type: cell-based; settings: methylnaltrexone (10 nM or 100 nM)
mu-opioid receptor = mu-opioid receptor (Homo sapiens, UniProt P35372); test: Serine/threonine phosphorylation of the mu-opioid receptor in EC (Example 9); type: cell-based; settings: for induction of serine/threonine phosphorylation of the mu-opioid receptor: EC
Chain of mu-opioid receptor (P35372 whole entry): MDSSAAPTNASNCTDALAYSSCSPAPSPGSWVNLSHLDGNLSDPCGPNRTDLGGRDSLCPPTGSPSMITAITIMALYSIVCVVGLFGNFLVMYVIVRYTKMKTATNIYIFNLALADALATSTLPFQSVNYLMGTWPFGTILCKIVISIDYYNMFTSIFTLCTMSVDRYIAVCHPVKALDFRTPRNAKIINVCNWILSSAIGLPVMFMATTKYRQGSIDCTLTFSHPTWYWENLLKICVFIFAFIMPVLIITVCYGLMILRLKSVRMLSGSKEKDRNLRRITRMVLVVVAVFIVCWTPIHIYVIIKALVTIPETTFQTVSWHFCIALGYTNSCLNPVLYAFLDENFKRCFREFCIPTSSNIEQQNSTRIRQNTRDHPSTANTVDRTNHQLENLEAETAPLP

[9] = system: Lewis lung carcinoma (LLC) cells; test: LLC cell proliferation in vitro; type: cell-based; settings: treatment in vitro with methylnaltrexone
[10] = system: Lewis lung carcinoma (LLC) tumor; test: LLC flank tumor model, continuous MNTX infusion; type: in vivo, C57BL/6J mice; settings: for appearance of macrometastases in the lungs / appearance of micrometastases in the lungs: continuous infusion 10 mg/kg/day
[11] = doses maintaining plasma levels about 25 and 150 ng/mL (Yuan et al.); cited from earlier work
[12] = pretreatment with MNTX 0.1 μM, 1 hour
[13] = summary statement, concentration dependence

Molecule: Bevacizumab: anti-VEGF mab (Avastin, Genentech)
- inhibition of VEGF induced migration of endothelial cells by the combination [1]: synergistically inhibit

Molecule: CN1CC[C@]23c4c5ccc(O)c4O[C@H]2[C@@H](O)C=C[C@H]3[C@H]1C5 [morphine]
- induction of tyrosine phosphorylation of VEGF receptor 1 (Flt-1) (VEGF receptor 1 (Flt-1)): induce tyrosine phosphorylation
- induction of tyrosine phosphorylation of VEGF receptor 2 (Flk-1) (VEGF receptor 2 (Flk-1)): induce tyrosine phosphorylation
- induction of tyrosine phosphorylation of the PDGF receptor (PDGF receptor): induced tyrosine phosphorylation
- agonist-induced EC proliferation [2]: induced proliferation
- agonist-induced EC proliferation ([2]; listed as MS): stimulate HPMVEC proliferation
- RhoA activation by agonist (RhoA): stimulate RhoA activation
- RhoA activation by agonist (RhoA; listed as MS): stimulate RhoA activation
- induction of tyrosine phosphorylation of the S1P3 receptor (S1P3 receptor): induced tyrosine phosphorylation
- increase in F11 c-1 expression (Flk-1 expression): 10 fold
- induction of proliferative retinopathy [3]: induced proliferative retinopathy
- induction of tyrosine phosphorylation of the VEGF receptor (VEGF receptor): induced tyrosine phosphorylation
- agonist-induced EC migration (% migration) [4]: induced
- agonist-induced EC migration (% migration) ([4]; listed as MS): induce HPMVEC migration

Molecule: C[C@H]1CN(C[C@H](Cc2ccccc2)C(=O)NCC(=O)O)CC[C@@]1(C)c1cccc(O)c1 [alvimopan]
- transpassage across the membrane [5]: some transpassage
- angiogenesis and tumor growth, combination of opioid, opioid antagonist and anticancer agent (tumor): enhanced result
- tumor growth and angiogenesis (tumors): reduction in tumor growth and angiogenesis
- angiogenesis and tumor growth, combination of opioid, opioid antagonist and anticancer agent (tumors): enhanced result

Molecule: C[C@@H](NC(=O)[C@@H](N)Cc1ccc(O)cc1)C(=O)NCC(=O)N(C)[C@@H](Cc1ccccc1)C(=O)NCCO [DAMGO, [D-Ala^2, N-McPhe^4, Gly^5-ol]-enkephalin]
- induction of tyrosine phosphorylation of VEGF receptor 1 (Flt-1) (VEGF receptor 1 (Flt-1)): induce tyrosine phosphorylation
- induction of tyrosine phosphorylation of VEGF receptor 2 (Flk-1) (VEGF receptor 2 (Flk-1)): induce tyrosine phosphorylation
- induction of tyrosine phosphorylation of the PDGF receptor (PDGF receptor): induced tyrosine phosphorylation
- agonist-induced EC proliferation [2]: stimulate HPMVEC proliferation; also recorded: induced proliferation
- RhoA activation by agonist (RhoA): stimulate RhoA activation
- induction of tyrosine phosphorylation of the S1P3 receptor (S1P3 receptor): induced tyrosine phosphorylation
- induction of tyrosine phosphorylation of the VEGF receptor (VEGF receptor): induced tyrosine phosphorylation
- agonist-induced EC migration (% migration) [4]: induce HPMVEC migration; also recorded: induced

Molecule: O=c1[nH]cc(F)c(=O)[nH]1 [5-FU, 5-fluorouracil]
- IC50 ([6]; Homo sapiens, SW480): ~10 µM
- inhibition of VEGF induced proliferation of endothelial cells by the combination [7]: synergistically inhibit

Molecule: C[N@+]1(CC2CC2)CC[C@]23c4c5ccc(O)c4O[C@H]2C(=O)CC[C@@]3(O)[C@H]1C5 [methylnaltrexone, N-methylnaltrexone]
- attenuation of VEGF induced tyrosine phosphorylation of VEGF receptor 1 (VEGF receptor 1 (Flt-1)): attenuates
- block of MS and DAMGO induced tyrosine phosphorylation of VEGF receptor 1 (Flt-1) (VEGF receptor 1 (Flt-1)): blocked
- reduction of LLC invasion [8]: significantly reduced; also recorded: dose-dependent inhibition
- inhibition of VEGF induced migration of endothelial cells by the combination [1]: synergistically inhibit
- attenuation of VEGF induced tyrosine phosphorylation of VEGF receptor 2 (VEGF receptor 2 (Flk-1)): attenuates
- block of MS and DAMGO induced tyrosine phosphorylation of VEGF receptor 2 (Flk-1) (VEGF receptor 2 (Flk-1)): blocked
- attenuation of agonist induced PDGF receptor phosphorylation (PDGF receptor; MNTX pretreatment of EC): attenuated
- angiogenesis and tumor growth, combination of opioid, opioid antagonist and anticancer agent (tumor): enhanced result
- attenuation of agonist induced mu-opioid receptor phosphorylation (mu-opioid receptor; MNTX pretreatment of EC): attenuated
- attenuation of MS, DAMGO and VEGF stimulated HPMVEC proliferation ([2]; 100 nM MNTX, 100 nM agonist, 24 h): attenuated
- inhibition of S1P, VEGF, PDGF, morphine and DAMGO induced EC proliferation [2, 12]: inhibited
- inhibition of opioid- and growth factor-induced proliferation of endothelial cells [2, 13]: in a concentration dependent manner
- inhibition of agonist-induced RhoA activation (RhoA; agonists morphine, DAMGO, VEGF (S1P, PDGF), listed as MNTX): inhibited; also recorded: attenuated
- attenuation of agonist induced S1P3 receptor phosphorylation (S1P3 receptor; MNTX pretreatment of EC): attenuated
- antiproliferation activity ([6]; MNTX alone, P<0.01 compared to control): possesses antiproliferation activity
- enhancement of 5-FU's tumoricidal effect ([6]; with 5-FU 10 μM, P<0.05 compared to 5-FU 10 μM only): enhanced 5-FU's tumoricidal effect
- reduction of LLC proliferation [9]: significantly reduced; also recorded: dose-dependent inhibition
- appearance of macrometastases in the lungs [10]: attenuated
- appearance of micrometastases in the lungs [10]: attenuated
- appearance of macrometastases in the lungs ([10]; listed as MNTX): attenuated; also recorded: inhibition; also recorded: decrease in lung macrometastases
- appearance of micrometastases in the lungs ([10]; listed as MNTX): attenuated; also recorded: inhibition
- attenuation of tumor growth ([10]; infusion 10 mg/kg/day, wild-type mice injected with LLC cells): up to 90%
- tumor growth and angiogenesis (tumors): reduction in tumor growth and angiogenesis
- angiogenesis and tumor growth, combination of opioid, opioid antagonist and anticancer agent (tumors): enhanced result
- inhibition of VEGF induced proliferation of endothelial cells by the combination [7]: synergistically inhibit
- attenuation of agonist induced VEGF receptor phosphorylation (VEGF receptor; MNTX pretreatment of EC): attenuated
- tolerability [11]: well tolerated
- inhibition of MS, DAMGO and VEGF induced HPMVEC migration ([4]; 100 nM MNTX, 100 nM agonist, 18 hours): inhibited
- inhibition of S1P, VEGF, PDGF, morphine and DAMGO induced EC migration [4, 12]: inhibited
- inhibition of opioid- and growth factor-induced migration of endothelial cells [4, 13]: in a concentration dependent manner

Molecule: PDGF
- induction of serine/threonine phosphorylation of the mu-opioid receptor (mu-opioid receptor): induced serine/threonine phosphorylation
- agonist-induced EC proliferation [2]: induced proliferation
- RhoA activation by agonist (RhoA): activation
- agonist-induced EC migration (% migration) [4]: induced

Molecule: CCCCCCCCCCCCC/C=C/[C@@H](O)[C@@H](N)COP(=O)(O)O [S1P, sphingosine 1-phosphate]
- induction of serine/threonine phosphorylation of the mu-opioid receptor (mu-opioid receptor): induced serine/threonine phosphorylation
- agonist-induced EC proliferation [2]: induced proliferation
- RhoA activation by agonist (RhoA): activation
- agonist-induced EC migration (% migration) [4]: induced

Molecule: VEGF
- induction of serine/threonine phosphorylation of the mu-opioid receptor (mu-opioid receptor): induced serine/threonine phosphorylation
- agonist-induced EC proliferation [2]: stimulate HPMVEC proliferation; also recorded: induced proliferation
- RhoA activation by agonist (RhoA): stimulate RhoA activation
- agonist-induced EC migration (% migration) [4]: induce HPMVEC migration; also recorded: induced
